Test results published in ChEMBL document CHEMBL5465560, “Selectivity Literature for EUbOPEN Chemogenomic Library” (2024).
One block for each compound: values may come before it.

Experiments:
[1] = target: T1, Muscle, skeletal receptor tyrosine-protein kinase (Homo sapiens) (UniProt O15146); assay: Selectivity interaction (Ambit KINOMEscan and KiNATiv profiling in Jurkat cells) EUB0000090b MUSK; assay type: cell-based; conditions: at 1 µM
T1 sequence (whole entry): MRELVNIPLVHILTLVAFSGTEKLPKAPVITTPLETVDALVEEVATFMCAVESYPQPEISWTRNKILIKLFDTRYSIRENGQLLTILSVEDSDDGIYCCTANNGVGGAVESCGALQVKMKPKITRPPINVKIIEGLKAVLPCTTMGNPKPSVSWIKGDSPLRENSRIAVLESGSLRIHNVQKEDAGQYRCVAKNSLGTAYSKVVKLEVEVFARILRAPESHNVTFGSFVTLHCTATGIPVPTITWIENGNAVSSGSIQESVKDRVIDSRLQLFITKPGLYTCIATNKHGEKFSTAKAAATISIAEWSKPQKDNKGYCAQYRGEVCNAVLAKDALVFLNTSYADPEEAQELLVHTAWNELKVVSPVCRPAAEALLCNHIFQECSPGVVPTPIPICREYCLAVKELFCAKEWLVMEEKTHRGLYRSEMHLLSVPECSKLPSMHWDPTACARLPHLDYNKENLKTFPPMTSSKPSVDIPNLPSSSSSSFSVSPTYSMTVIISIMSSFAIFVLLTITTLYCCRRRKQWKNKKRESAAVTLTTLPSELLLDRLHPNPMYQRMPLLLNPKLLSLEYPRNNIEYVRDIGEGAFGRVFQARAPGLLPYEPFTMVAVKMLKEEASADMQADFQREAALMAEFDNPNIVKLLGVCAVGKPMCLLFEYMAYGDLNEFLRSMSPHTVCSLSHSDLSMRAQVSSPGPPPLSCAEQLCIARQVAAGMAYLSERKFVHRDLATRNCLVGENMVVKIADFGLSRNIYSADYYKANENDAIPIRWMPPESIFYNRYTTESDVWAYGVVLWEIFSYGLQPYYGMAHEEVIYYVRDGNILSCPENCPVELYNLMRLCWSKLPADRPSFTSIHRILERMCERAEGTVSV

[2] = target: Citron Rho-interacting kinase (Homo sapiens) (UniProt O14578); assay: Selectivity interaction (KinomeScan (DiscoverX)) EUB0001079a CIT; conditions: at 1 µM
Chain of Citron Rho-interacting kinase (Homo sapiens) (O14578 whole entry): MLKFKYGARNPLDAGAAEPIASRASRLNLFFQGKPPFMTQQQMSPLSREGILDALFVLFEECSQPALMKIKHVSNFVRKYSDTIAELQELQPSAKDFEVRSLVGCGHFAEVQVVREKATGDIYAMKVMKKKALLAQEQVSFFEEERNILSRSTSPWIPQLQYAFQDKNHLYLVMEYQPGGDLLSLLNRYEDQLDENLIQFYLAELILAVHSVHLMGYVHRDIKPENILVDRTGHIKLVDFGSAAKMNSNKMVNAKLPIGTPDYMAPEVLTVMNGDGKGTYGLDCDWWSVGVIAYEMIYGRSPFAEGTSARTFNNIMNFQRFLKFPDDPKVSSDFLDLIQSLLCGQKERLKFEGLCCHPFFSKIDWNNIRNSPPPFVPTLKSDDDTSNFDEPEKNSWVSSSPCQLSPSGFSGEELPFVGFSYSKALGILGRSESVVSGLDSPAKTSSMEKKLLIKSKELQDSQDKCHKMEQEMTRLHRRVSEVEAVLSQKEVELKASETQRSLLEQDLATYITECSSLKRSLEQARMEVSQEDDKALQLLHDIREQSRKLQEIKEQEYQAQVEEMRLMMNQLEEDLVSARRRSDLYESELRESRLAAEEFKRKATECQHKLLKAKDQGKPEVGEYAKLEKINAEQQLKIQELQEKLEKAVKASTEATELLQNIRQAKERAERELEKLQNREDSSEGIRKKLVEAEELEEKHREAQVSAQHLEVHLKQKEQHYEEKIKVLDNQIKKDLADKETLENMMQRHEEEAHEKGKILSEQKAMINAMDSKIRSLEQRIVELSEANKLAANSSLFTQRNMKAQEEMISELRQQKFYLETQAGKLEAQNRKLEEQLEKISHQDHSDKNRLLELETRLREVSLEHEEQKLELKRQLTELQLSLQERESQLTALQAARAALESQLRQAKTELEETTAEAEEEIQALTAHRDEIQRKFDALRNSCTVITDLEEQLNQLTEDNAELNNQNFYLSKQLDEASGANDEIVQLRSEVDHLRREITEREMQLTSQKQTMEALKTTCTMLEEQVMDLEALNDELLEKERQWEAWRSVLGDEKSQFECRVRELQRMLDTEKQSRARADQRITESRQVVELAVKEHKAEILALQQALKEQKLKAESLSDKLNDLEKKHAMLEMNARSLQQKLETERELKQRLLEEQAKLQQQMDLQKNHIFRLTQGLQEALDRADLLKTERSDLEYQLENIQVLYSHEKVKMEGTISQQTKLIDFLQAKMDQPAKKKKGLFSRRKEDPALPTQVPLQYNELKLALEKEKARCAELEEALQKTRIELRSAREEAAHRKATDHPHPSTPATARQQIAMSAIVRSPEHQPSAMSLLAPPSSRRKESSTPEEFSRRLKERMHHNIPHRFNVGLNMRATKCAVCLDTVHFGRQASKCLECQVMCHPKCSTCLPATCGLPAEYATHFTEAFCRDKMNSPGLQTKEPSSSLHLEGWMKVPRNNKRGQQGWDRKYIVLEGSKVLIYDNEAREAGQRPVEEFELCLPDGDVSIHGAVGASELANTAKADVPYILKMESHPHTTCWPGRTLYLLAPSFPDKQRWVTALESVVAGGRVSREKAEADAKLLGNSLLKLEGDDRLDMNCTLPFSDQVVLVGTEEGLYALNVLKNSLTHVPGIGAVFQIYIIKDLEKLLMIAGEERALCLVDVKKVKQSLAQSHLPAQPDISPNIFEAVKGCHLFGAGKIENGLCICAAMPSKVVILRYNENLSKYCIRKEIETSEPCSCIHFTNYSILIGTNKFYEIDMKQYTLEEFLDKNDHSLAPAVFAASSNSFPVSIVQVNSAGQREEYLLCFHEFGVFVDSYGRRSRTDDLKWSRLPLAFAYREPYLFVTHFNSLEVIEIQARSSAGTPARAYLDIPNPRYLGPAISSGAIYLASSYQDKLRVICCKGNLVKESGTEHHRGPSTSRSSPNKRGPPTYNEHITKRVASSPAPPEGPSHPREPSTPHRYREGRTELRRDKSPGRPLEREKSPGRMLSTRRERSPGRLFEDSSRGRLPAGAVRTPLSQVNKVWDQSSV

[3] = target: T2, cAMP-dependent protein kinase catalytic subunit PRKX (Homo sapiens) (UniProt P51817); assay: Selectivity interaction (ProQinase) EUB0000171b PRKX
T2 sequence (whole entry): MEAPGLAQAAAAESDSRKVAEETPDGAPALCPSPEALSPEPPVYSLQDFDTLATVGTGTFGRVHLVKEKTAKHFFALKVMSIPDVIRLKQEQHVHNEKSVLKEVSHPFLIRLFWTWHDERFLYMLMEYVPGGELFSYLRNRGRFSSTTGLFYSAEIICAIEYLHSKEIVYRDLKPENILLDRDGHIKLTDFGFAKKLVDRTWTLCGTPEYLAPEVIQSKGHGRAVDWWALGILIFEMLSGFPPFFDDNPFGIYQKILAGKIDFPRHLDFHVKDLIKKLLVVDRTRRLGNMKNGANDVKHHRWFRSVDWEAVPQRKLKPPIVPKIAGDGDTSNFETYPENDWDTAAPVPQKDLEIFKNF

[4] = target: Ephrin type-A receptor 2 (Homo sapiens) (UniProt P29317); assay: Selectivity interaction (SelectScreen profiling (Invitrogen)) EUB0000607a EPHA2; conditions: at 2 µM
Chain of Ephrin type-A receptor 2 (Homo sapiens) (P29317 whole entry): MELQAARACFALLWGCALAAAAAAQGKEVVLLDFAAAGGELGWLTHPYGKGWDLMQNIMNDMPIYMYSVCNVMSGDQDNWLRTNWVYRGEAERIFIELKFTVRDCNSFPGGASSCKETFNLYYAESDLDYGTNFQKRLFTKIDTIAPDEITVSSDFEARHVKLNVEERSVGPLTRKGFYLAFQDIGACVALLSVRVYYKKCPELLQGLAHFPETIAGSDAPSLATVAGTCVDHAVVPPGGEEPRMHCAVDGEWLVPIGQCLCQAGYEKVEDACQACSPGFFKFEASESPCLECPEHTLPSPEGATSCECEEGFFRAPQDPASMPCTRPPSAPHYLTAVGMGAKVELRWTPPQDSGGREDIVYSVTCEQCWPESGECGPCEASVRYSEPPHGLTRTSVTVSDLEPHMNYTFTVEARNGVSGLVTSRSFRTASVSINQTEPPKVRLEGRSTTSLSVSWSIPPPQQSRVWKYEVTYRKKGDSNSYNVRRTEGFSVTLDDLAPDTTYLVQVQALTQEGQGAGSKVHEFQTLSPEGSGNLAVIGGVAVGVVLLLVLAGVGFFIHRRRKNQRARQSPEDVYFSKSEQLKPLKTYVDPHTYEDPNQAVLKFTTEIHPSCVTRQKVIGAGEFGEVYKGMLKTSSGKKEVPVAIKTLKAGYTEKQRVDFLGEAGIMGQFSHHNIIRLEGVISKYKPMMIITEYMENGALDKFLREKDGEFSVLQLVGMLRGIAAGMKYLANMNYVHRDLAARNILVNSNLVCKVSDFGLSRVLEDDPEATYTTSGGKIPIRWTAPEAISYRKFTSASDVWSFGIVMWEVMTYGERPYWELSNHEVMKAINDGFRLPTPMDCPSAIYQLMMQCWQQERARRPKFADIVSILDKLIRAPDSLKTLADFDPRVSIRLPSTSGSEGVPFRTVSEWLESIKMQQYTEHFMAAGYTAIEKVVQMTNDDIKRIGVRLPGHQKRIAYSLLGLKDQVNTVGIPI

[5] = target: RAC-beta serine/threonine-protein kinase (Homo sapiens) (UniProt P31751); assay: Selectivity interaction (SelectScreen profiling (Invitrogen)) EUB0000607a AKT2; conditions: at 2 µM
Chain of RAC-beta serine/threonine-protein kinase (Homo sapiens) (P31751 whole entry): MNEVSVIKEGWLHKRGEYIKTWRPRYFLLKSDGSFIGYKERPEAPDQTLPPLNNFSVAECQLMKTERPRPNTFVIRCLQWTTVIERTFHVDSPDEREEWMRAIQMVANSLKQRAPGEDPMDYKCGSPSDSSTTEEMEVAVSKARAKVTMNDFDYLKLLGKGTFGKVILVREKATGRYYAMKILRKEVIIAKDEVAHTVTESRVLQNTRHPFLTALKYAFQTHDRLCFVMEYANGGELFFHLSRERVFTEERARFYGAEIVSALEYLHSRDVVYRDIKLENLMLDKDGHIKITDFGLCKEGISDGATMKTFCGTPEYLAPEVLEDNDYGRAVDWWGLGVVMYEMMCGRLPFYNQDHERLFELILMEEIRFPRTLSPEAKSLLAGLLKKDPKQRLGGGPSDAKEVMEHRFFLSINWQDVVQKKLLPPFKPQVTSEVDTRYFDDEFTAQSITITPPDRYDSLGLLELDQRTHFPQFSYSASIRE

[6] = target: T3, Serine/threonine-protein kinase ULK1 (Homo sapiens) (UniProt O75385); assay: Selectivity interaction (Kinase panel (KiNativ target engagement assay in Jurkat cells)) EUB0001635a ULK1; assay type: cell-based; conditions: Selectivity number of off-targets 0.0, Selectivity number of targets 233.0, Source Knowledge https://www.sciencedirect.com/science/article/pii/S2451945619300674?via%3Dihub, at 1 µM
T3 sequence (whole entry): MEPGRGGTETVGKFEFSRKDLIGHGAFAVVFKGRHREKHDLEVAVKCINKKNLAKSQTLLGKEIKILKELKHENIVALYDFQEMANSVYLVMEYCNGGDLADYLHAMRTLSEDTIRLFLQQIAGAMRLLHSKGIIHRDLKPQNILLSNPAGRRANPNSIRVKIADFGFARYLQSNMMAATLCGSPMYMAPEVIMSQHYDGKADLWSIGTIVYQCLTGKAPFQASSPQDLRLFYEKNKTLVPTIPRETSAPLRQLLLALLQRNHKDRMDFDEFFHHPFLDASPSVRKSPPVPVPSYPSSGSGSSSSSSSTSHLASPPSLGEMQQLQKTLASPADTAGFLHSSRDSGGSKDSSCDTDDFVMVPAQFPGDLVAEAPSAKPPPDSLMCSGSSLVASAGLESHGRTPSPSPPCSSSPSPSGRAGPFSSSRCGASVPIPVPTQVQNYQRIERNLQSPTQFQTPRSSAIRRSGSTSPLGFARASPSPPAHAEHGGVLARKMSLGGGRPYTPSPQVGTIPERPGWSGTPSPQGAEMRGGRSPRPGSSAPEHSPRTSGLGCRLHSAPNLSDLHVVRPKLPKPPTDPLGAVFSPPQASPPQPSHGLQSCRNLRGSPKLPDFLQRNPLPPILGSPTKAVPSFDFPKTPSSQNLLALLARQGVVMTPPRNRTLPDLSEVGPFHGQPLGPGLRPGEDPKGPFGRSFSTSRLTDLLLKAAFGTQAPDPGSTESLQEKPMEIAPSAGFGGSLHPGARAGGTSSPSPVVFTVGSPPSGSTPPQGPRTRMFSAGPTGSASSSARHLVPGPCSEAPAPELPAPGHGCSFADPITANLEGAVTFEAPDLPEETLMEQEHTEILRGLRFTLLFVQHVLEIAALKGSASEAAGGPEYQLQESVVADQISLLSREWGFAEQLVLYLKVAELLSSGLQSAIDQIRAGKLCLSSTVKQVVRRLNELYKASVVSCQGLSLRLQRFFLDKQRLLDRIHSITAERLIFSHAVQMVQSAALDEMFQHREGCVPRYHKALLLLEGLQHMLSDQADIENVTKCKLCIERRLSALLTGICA

SMILES: CN(C)C/C=C/C(=O)Nc1ccc(C(=O)N2CCCC(Nc3ncc(Cl)c(-c4c[nH]c5ccccc45)n3)C2)cc1 (configuration not stated)
- % of control [1]: 96%

SMILES: Nc1cnc(N2CCc3cc(S(=O)(=O)Nc4c(F)cc(Cl)cc4F)cc(N4CCCC4=O)c32)nc1 [TP-020n]
- % of control [2]: 91%

- % of control ([3]; at 1 µM): 86%
- % of control ([3]; at 5 µM): 61%
SMILES: C=CC(=O)Nc1cccc(C(=O)Nc2ccc(Nc3cc(-c4[nH]c(SC)nc4C)ccn3)cc2)c1

SMILES: CNC(=O)Nc1ccc(-c2nc(N3CC4CCC(C3)O4)c3cnn(C4CCC5(CC4)OCCO5)c3n2)cc1
- % of inhibition [4]: 8%
- % of inhibition [5]: 5%

SMILES: C=CC(=O)Nc1ccc(C(=O)Nc2[nH]nc3c2CN(C(=O)N[C@H](CN(C)C)c2ccccc2)C3(C)C)cc1
- % of engagement [6]: 5.7%
